ChEMBL document CHEMBL1158244, “A new norcembranoid dimer from the red sea soft coral Sinularia gardineri” (1996)

Experiments:
Assay type in all cases: functional
[1] = tested on: Cryptococcus neoformans; test: Antifungal activity against Cryptococcus neoformans at 1 mg/mL; settings: read-out: IZ
[2] = tested on: Candida albicans; test: Antifungal activity against Candida albicans B311 at 1 mg/mL; settings: read-out: IZ
[3] = tested on: SK-MEL-28; test: Cytotoxicity against human SK-MEL-28 cells
[4] = tested on: HT-29; test: Cytotoxicity against human HT29 cells
[5] = tested on: P388; test: Cytotoxicity against mouse P388 cells
[6] = tested on: A549; test: Cytotoxicity against human A549 cells

Row | SMILES | zone of inhibition at 1000 µg/mL [1] [mm] | zone of inhibition at 1000 µg/mL [2] [mm] | Activity [3] [µg/mL] | Activity [4] [µg/mL] | Activity [5] [µg/mL] | Activity [6] [µg/mL]
1 | C[C@@H]1[C@H](O)[C@@H](C)/C=C/C=C/C=C/C=C/C=C/C=C/C=C/[C@H](O[C@@H]2O[C@H](C)[C@@H](O)[C@H](N)[C@@H]2O)C[C@@H]2O[C@](O)(C[C@@H](O)C[C@@H](O)[C@H](O)CC[C@@H](O)C[C@@H](O)CC(=O)O[C@H]1C)C[C@H](O)[C@H]2C(=O)O [AMPHOTERICIN B] | 10 | 12 |  |  |  | 
2 | CC(C)C1=C[C@@H]2[C@H](CC[C@@]2(C)O)[C@@](C)(O)CC1 [GUAIANEDIOL] |  |  | 5 | 5 | 1 | 2.5
3 | C=C(C)[C@H]1CC[C@@]23O[C@@H]2[C@@H](C[C@@]2(C)CC(=O)[C@H](CC(=O)C1)O2)OC(=O)[C@@]12CC[C@H](C(=C)C)CC(=O)C[C@H]4O[C@](C)(CC4=O)C[C@@H](OC3=O)[C@@H]1O2 [SINGARDIN] | 3 | 3 | 5 | 5 | 1 | 2.5
